This is an account of results in paper PMC9762789, “Chromone-based monoamine oxidase B inhibitor with potential iron-chelating activity for the treatment of Alzheimer’s disease” (Journal of Enzyme Inhibition and Medicinal Chemistry, 2022).

Broadly, the Ki is a dissociation constant, usually derived from enzyme kinetics or from competition with a known ligand. The IC50 is the point on the concentration scale where inhibition reaches its midpoint. Read a high IC50 as a need for much substance. The term melting point denotes the temperature of the solid-liquid transition.

Entries after “also recorded” stand apart in the source; their conditions may differ. Like-named read-outs stand apart in the source and are kept apart here.

Data set [1] can be described thus: PAMPA-BBB assay. Format: in vitro ADME. From the text:
Good blood–brain barrier (BBB) permeability is the key to exerting drug efficacy in the treatment of central nervous system diseases. To evaluate whether the target compound could penetrate BBB, a parallel artificial membrane permeability assay (PAMPA) was used to predict[32]^,[33]. […] Therefore, due to its potential ability to cross the BBB, compound 17d was selected for subsequent assay.
PAMPA was used to predict the BBB permeability of the screened compound. The detailed process has been mentioned in our early work[32]^,[33].
On the technique in general: In PAMPA a lipid-coated filter parts donor from acceptor wells.

The target of data set [2] is T1, MAO-B (Homo sapiens, UniProt P27338).
T1 construct: purchased Sigma-Aldrich
T1 sequence (P27338 1-520): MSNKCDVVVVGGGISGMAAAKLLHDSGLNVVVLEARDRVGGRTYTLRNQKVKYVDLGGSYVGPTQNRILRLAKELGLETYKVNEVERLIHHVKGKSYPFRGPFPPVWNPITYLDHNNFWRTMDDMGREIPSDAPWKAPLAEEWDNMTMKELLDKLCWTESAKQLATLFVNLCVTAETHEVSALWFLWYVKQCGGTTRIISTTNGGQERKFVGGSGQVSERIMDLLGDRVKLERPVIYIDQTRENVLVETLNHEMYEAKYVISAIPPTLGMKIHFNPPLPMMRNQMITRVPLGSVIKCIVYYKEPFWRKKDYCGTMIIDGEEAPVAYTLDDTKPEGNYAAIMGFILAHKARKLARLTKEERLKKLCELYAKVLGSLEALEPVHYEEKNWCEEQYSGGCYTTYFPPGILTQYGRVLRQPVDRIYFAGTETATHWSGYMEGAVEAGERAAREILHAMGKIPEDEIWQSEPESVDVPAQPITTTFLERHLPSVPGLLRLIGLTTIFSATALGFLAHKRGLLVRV
The data set can be described thus: MAO-B kinetic study (Michaelis-Menten, Lineweaver-Burk, p-tyramine substrate). In kind it is biochemical. As for the experimental part:
Figure 5. Kinetic study and cytotoxicity assay of compound 17d. […] The Cytotoxicity effect of compound 17d on PC-12 cells (C).
(§1) To examine the interaction mode of 17d on MAO-B, kinetic studies were carried out. From the Lineweaver–Burk plots (Figure 5(B)), we observed that 17d operated by a non-competitive inhibition mechanism. […] Subsequently, the potential toxic effect of 17d was investigated on pheochromocytoma (PC-12) cells.
To further examine the interaction mode of compound 17d, the type of enzyme inhibition was determined by Michealis–Menten kinetic experiments. The catalytic rates of MAO‐B enzyme were measured at six different concentrations of substrate p‐tyramine (0.05, 0.1, 0.25, 0.5, 1.0, and 1.25 mM) in the absence and in the three different concentrations (33.3, 100, and 300 nM) of compound 17d. The corresponding dose‐response curves and the nonlinear/linear regression analysis were performed using GraphPad Prism version 6 software (Graphpad Software Inc., La Jolla, CA).

Data set [3] can be described thus: pKa determination by automated spectrophotometric titration. The conditions noted are these: 0.1 M KCl solution. In kind it is physicochemical.
For data set [4], the target named is T2, Human MAO-A (Homo sapiens, UniProt P21397).
T2 construct: purchased Sigma-Aldrich
T2 sequence (P21397 1-527): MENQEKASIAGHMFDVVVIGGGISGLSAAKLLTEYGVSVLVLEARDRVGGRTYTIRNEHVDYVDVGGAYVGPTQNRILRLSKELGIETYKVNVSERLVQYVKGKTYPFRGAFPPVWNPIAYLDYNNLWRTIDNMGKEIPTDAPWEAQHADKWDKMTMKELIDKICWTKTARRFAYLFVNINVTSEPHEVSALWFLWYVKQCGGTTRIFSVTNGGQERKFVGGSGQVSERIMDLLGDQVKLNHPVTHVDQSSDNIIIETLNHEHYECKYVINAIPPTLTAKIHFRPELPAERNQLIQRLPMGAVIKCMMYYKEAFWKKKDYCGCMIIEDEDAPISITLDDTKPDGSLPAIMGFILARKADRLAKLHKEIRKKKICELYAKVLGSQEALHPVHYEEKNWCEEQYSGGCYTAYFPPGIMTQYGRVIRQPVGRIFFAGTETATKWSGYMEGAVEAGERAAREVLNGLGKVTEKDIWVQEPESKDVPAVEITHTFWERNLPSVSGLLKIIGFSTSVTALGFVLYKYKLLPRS
Kind of data set: hMAO-A inhibition assay. In kind it is biochemical. Put shortly: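 Inhibition of hMAO-A was tested using diluted substrate and enzyme solutions per kit manuals. Selectivity index was calculated as IC50 (hMAO-A)/IC50 (hMAO-B).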

The subject of data set [5] is PC-12 cells. Kind of data set: Cytotoxicity test (MTT). Format: cell-based. The conditions noted are these: 24 h, up to 50 µM. The protocol:
as §1
Neural pheochromocytoma-derived PC-12 cells at the log phase of their growth cycle (8 × 10^4 cells/ml) were added to each well (100 μl/well) and incubated for 24 h at 37 °C in a humidified atmosphere of 5% CO2. Then three replicates at various concentrations of the samples (3.13, 6.25, 12.5, 25, and 50 μM) were added to each well (100 μl/well). After incubating for 24 h, 20 μl of MTT solution (5 mg/ml/well) was added to each culture medium, which was then incubated for another 4 h. Then DMSO was added to each well (150 μl/well). After 10 min at room temperature, the OD values of each well were measured on a Microplate Reader (BioTek ELx800, Winooski, VT) at the wavelength of 490 nm.

Data set [6] deals with T1, MAO-B. The data set can be described thus: hMAO-B inhibition assay. In kind it is biochemical. The protocol:
The reagents and enzymes (Human MAO-B and Human MAO-A) applied in this experiment were purchased from Sigma-Aldrich. According to the manuals, all components (substrate solution and enzyme solution) are diluted and placed aside for use. The detailed process has been mentioned in our early work[34].

In the case of `COc1ccc2c(=O)c(CNCCn3ccc(=O)c(O)c3C)coc2c1` [Compound 17d, 3-Hydroxy-1–(2-(((7-methoxy-4-oxo-4H-chromen-3-yl)methyl)amino)ethyl)-2-methylpyridin-4(1H)-one], the melting point is 252 to 254 °C. Further, the Papp in data set [1] (PAMPA-BBB, mean ± SEM of eight independent experiments, read-out: Pe ± SEM) worked out at 2.73 ± 0.07 ×10⁻⁶ cm/s. Further, in data set [1] (class from PAMPA-BBB Pe), the CNS result is “± (CNS (±) (BBB permeation uncertain); Pe (× 10^−6 cm s^−1) from 2.0 to 4.0)”. Moreover, the inhibition mechanism result in data set [2] (Lineweaver–Burk plots) is “non-competitive”. Besides, the Ki in data set [2] (p-tyramine substrate, GraphPad Prism, read-out: inhibition constant (Ki)) is 74.7 nM. For the same compound, in data set [3] (read-out: pKa1), the pKa worked out at 2.86. Also, in data set [3] (read-out: pKa2), the pKa was 9.78. Also, in data set [4], half-maximal inhibition (IC50) was put at 739 ± 21.9 nM. In data set [5], the cytotoxicity entry is given as “no cytotoxicity; also recorded: noncytotoxic”. In data set [6], the IC50 was found to be 67 ± 4.3 nM and the “SI: hMAO-B selectivity index = IC50 (hMAO-A)/IC50 (hMAO-B)” value came to 11.0. The inhibition at 0.1 µM in data set [6] (hMAO-B, 100 nM, read-out: Inhibitory rate (%, 100 nM)) was 48.9 ± 1.4%.
